Residues, ends and D or L forms follow the SMILES beside them. *: point of attachment. Palmitoyl = CCCCCCCCCCCCCCCC(=O)*

The subject of one assay is MDR E. coli. The experiment in a line: Live/dead bacterial viability assay. To be noted: 4 h. The format is cell-based, multidrug-resistant E. coli (MDR E. coli). The text has this: To further investigate bacteria viability after treatment with ACA-PA, the live/dead assay was used to confirm the antibacterial actions of ACA-PA. Dead bacteria with disrupted membrane were stained a first color, whereas live bacteria were stained with a second color fluorescence. A large amount of robust MRSA bacteria in the untreated control sample appeared a second color and in spherical shapes (FIG. 10A). […] This antibacterial activity was dependent on the concentration of PA, yet was not determined by peptide self-assembly. Nonetheless, Gram-negative MDR E. coli responded to the treatment of ACA-PA differently from Gram-positive MRSA.
The live/dead bacterial viability assay was conducted to further assess the bactericidal efficacy of ACA-PA using the LIVE/DEAD BacLight Bacterial Viability Kits (Kits 71007, Molecular Probes, Eugene, OR, USA). MRSA and MDR E. coli bacteria (100 μl, 10^6 CFU/mL) were incubated with 80 μM and 40 μM of peptide in 3% TSB media at 37° C. for 4 h on a 96-well plate, and the control samples of bacteria were incubated in 3% TSB media only. […] The live bacteria stained fluorescent a second color (SYTO9 nucleic acid stain), whereas the dead bacteria with disrupted membranes stained fluorescent a first color (propidium iodide, PI).

The test system of the next assay is MRSA. Briefly: Bacterial growth inhibition (growth curves, OD562, 20 h). The format is cell-based, methicillin-resistant S. aureus (MRSA, ATCC #43300). As for the experimental part:
(§1) Gram-positive (S. aureus and MRSA) and Gram-negative (E. coli and MDR E. coli) bacteria were incubated with peptide concentrations ranging from 20 to 100 μM, and time-lapsed bacterial growth was monitored for 20 hours by determining the optical density at 562 nm (O.D. 562 nm). […] At the highest concentration tested (100 μM), the time to exponential growth phase of S. aurues was delayed by about 18 h (FIG. 5B), and was prolonged by almost 13 h for MRSA (FIG. 5A), while bacteria incubated without ACA-PA entered the exponential growth phase within 4 h. Gram-positive bacteria were also susceptible to the ACA-PA even below their CMC.
(§2) The MIC values of ACA-PA towards drug-resistant bacteria were determined after 24 h of incubation (Table 2).
(§3) This assay was performed to investigate the inhibitory effects of each peptide against Gram-positive Staphylococcus aureus (S. aureus, ATCC #25923) and methicillin-resistant S. aureus (MRSA, ATCC #43300), as well as Gram-negative Escherichia coli (E. coli, ATCC #25922), and multidrug-resistant E. coli (MDR E. coli, ATCC #BAA-2471). In all experiments, solutions of each peptide at the concentrations from 20 μM to 100 μM in 3% Tryptic Soy Broth (TSB) media were freshly prepared. A single colony of bacteria was isolated from a stock agar plate and cultured overnight in 4 mL of 3% TSB on a shaking incubator set at 200 rpm and 37° C. The bacteria culture was adjusted to an optical density at 562 nm (OD562) to about 0.52 (10^9 cells/mL), and the resulting bacteria suspension was subsequently diluted to about 10^6 colony forming units (CFU) per mL in each sample. The control samples were bacteria incubated in TSB media without peptides. The bacteria were incubated inside a spectrophotometer (Spectra-Max Paradigm, Molecular Devices, Sunnyvale, CA) at 37° C. under static conditions for 20 h, and the bacterial growth curves were measured in terms of turbidity at OD562 every 2 minutes. The normalized OD562 values of samples were calculated by subtracting the […].

Assay [1] concerns LPS (from Escherichia coli O111:B4). The experiment in a line: LPS binding, BODIPY TR cadaverine (BC) probe displacement assay. To be noted: 20 μM to 100 μM peptide, 100 μg/mL LPS. As to the method:
The binding of each peptide at various concentrations to LPS was determined by the capability of displacing the BC probes bound with LPS. The fluorescent BC probe was used as a probe to determine the level of peptide bound with LPS. BC probe binds to native LPS and particularly target the lipid A portion. The fluorescent intensity of BC probe decreases as it binds to LPS. […] For instance, the LPS binding factor of samples containing 60 μM of CVK-PA was as double as the 40 μM sample.
The LPS binding affinity of peptide was examined with the BODIPY TR cadaverine (BC) fluorescent probe displacement assay as previously described. Stock solution of each peptide was diluted to predetermined concentrations with 10 mM HEPES buffer (pH=7.5, Thermo Fisher Scientific, Waltham, MA, USA). […] Followed by incubation for 15 minutes in room temperature, the fluorescent intensity was measured using a spectrophotometer at an excitation wavelength of 580 nm and an emission wavelength of 620 nm. Finally, the LPS binding factor of each sample was calculated using the equation: […]
When peptides bind to LPS and displace the BC probe, fluorescence intensity of the probe is increased. LPS binding affinity of each peptide was then analyzed by the fluorescent intensity of the displaced BC probe. […]

Another assay relates to E. coli. The experiment in a line: Bacterial growth inhibition (growth curves, OD562, 20 h). The format is cell-based, Escherichia coli (ATCC #25922). As to the method:
as §1, §2, §3

Turning to `CCCCCCCCCCCCCCCC(=O)N[C@H](C(=O)N[C@H](C(=O)N[C@H](C(=O)N[C@H](C(=O)N[C@@H](CCCCN)C(=O)N[C@@H](CCCCN)C(=O)N[C@@H](CCCCN)C(=O)N[C@@H](CCCCN)C(=O)NCC(=O)N[C@@H](C)C(=O)N[C@@H](CCCCN)C(=O)N[C@@H](CCCCN)C(=O)N[C@@H](C)C(=O)N[C@@H](CCCNC(=N)N)C(=O)N[C@@H](C)C(=O)N[C@@H](C)C(=O)N[C@@H](CCCCN)C(=O)N[C@@H](CCCCN)C(=O)N[C@@H](C)C(=O)N[C@@H](CCCNC(=N)N)C(=O)N[C@@H](C)C(=O)O)C(C)C)C(C)C)C(C)C)C(C)C` [ACA-PA, C16-V4K4G(AKKARA)2 (SEQ ID NO: 7)] (Palmitoyl-VVVVKKKKGAKKARAAKKARA-OH; N-terminus and C-terminus assumed), the figures for the “bacterial viability (live/dead staining)” value in the assay on MDR E. coli (40 μM) and in the assay with MDR E. coli (80 μM) were “unable to induce considerable cell mortality” and “enhanced the number of dead bacteria drastically”, respectively. Further, the “prolongation of time to exponential growth phase” value with MRSA (100 μM) is on record as approximately 13 h. For the same compound, the bacterial growth inhibition entry in the assay on MRSA (20 to 100 μM, 20 h) is “remarkably inhibited the proliferation”; in the assay on E. coli (20 to 100 μM, 20 h), “remarkably inhibited the proliferation”; in the assay with E. coli (concentrations lower than the CMC), “did not significantly inhibit bacterial growth”. Moreover, in the assay with MRSA (below the CMC), the “susceptibility of bacterial growth” value was “susceptible”. Besides, in assay [1], the LPS binding factor result was “highest LPS binding capability among the peptides investigated”. Further, the bacterial proliferation result with E. coli (concentrations higher than the CMC (60 μM to 100 μM)) was “significantly suppressed”.

Source of the values: US12319752B2, “Heparin-binding cationic peptide self-assembling peptide amphiphiles useful against drug-resistant bacteria” (priority 2016, dated 2025).
